Patent publication US9845313B2, “Cycloalkane derivatives” (Daiichi Sankyo Company, Limited, priority 2012, dated 2017)

What was measured:
[1] = test system: patients of painful diabetic neuropathy; conditions: cited from earlier work
hNav1.7 = hNav1.7 (Homo sapiens (Human), UniProt Q15858); experiment: Electrophysiological evaluation, automated patch clamp IonWorks Quattro, hNav 1.7/β1/β2 HEK293A cells; assay type: cell-based; conditions: response caused by the second depolarization pulse (pre-pulse potential set to V1/2); HEK293A hNav 1.7/β1/β2 cells; Population Patch Clamp
Chain of hNav1.7 (Q15858 whole entry): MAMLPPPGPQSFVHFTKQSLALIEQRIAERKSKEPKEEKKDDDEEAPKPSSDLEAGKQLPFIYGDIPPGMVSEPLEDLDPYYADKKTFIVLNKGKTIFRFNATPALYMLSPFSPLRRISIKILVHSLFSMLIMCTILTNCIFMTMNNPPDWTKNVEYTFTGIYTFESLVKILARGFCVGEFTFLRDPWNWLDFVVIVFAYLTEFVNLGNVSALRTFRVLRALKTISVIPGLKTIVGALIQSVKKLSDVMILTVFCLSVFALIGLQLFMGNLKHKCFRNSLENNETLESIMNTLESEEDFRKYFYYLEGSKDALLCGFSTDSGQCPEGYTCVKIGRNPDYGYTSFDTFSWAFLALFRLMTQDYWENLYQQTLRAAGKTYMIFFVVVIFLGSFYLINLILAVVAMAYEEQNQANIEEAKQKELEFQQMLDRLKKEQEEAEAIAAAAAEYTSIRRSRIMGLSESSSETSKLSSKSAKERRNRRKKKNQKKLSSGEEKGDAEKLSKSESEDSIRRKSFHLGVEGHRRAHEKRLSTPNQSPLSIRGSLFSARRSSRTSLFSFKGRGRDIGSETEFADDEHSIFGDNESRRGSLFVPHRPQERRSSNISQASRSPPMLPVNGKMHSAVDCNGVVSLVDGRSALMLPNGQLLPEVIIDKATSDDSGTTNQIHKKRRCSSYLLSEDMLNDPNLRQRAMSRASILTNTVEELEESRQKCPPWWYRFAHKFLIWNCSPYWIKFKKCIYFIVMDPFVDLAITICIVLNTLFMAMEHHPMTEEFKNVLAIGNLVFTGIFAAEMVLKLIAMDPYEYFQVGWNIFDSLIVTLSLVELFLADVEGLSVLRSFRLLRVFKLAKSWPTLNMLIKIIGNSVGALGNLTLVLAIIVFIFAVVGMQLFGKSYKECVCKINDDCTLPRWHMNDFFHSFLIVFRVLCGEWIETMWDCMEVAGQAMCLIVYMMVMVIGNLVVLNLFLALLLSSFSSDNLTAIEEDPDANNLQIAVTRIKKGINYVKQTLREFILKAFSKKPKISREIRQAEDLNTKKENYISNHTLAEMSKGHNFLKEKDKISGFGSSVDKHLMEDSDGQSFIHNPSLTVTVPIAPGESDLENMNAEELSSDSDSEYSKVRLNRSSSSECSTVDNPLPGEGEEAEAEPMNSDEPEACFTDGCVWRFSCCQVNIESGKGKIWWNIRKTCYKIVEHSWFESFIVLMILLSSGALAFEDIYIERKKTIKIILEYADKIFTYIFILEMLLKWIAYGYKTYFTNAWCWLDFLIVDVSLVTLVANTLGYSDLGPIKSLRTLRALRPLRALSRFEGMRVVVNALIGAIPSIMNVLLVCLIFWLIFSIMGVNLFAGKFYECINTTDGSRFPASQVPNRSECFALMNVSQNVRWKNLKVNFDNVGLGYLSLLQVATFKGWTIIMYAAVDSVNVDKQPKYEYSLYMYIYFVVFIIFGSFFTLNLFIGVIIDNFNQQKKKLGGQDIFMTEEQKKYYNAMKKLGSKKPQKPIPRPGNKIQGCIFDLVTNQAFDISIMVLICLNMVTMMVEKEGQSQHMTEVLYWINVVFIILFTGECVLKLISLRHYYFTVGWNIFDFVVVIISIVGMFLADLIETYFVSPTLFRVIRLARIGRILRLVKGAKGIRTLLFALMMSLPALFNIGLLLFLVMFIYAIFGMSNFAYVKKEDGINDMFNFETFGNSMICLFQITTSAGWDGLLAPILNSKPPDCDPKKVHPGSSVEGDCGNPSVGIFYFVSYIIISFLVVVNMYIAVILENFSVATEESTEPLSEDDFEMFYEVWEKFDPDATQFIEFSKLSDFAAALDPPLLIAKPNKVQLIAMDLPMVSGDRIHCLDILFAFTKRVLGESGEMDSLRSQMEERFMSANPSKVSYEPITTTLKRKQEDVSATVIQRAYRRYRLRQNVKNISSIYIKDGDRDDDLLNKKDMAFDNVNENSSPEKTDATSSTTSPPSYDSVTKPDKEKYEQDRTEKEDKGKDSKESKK
Chain of hNav1.7 (Q07699 19-218 partner): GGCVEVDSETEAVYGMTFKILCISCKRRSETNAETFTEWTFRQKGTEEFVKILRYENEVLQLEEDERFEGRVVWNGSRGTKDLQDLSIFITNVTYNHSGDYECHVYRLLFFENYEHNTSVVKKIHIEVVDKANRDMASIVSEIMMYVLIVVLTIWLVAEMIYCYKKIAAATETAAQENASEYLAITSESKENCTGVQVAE
Chain of hNav1.7 (O60939 30-215 partner): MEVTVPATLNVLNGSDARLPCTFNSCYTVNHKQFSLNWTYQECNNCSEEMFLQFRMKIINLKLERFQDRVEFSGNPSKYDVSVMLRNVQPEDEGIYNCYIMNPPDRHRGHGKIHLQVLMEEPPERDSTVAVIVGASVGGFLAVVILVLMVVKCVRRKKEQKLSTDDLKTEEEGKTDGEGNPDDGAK

| SMILES | effective therapeutic ratio based on self-evaluation of patients [1] | IC50 (hNav1.7) [nM] |
| --- | --- | --- |
| CC(C)C[C@H](CN)CC(=O)O [pregabalin] | approximately 50% |  |
| O=S(=O)(Nc1ncns1)c1cc(F)c(O[C@@H]2CCCC[C@@H]2c2ccccc2)cc1F (relative stereo) [Example 3, 2,5-Difluoro-4-{[(1R*,2R*)-2-phenylcyclohexyl]oxy}-N-(1,2,4-thiadiazol-5-yl)benzenesulfonamide] |  | 270 |
